The target of series [1] is T1, NMUR2 (neuromedin U 2 receptor) (Homo sapiens, UniProt Q9GZQ4).
T1 construct: expressed in transfected cells; host or cells: HEK293 (HEK-NMU2)
The series can be described thus: Calcium mobilization assay, HEK-NMU2 cells. The format is cell-based. The following applies: HEK293 cells expressing NMU2 receptor, NA = not active. As for the experimental part: To test whether neuromedin U can be modified/derivatized to yield truncated bioactive compound(s) that may be useful as therapeutics, we synthesized a small library (25 peptides) of hNMU analogs utilizing various stabilization protocols, including: cyclization, lipidation, introduction of α,α-disubstituted and N-methylated amino acids, retro-inverso-approach, and combination of such (see Table 1). Subsequently all analogues were tested against human neuromedin U receptors (NMUR1 and NMUR2) in calcium mobilization assay (collaboration with Dr Gary Willars, University of Leicester, UK).
HEK293 cells expressing either the neuromedin U 1 receptor or neuromedin U 2 receptor (HEK-NMU1 and HEK-NMU2 respectively) were grown to approximately 90% confluence in ELISA strip plates (96-well format) pre-coated with poly-D-lysine (0.1% w/v) and loaded for 45 min at 37° C. with 2 iM fluo-4-AM in Krebs'-HEPES buffer with bovine serum albumin (KHB-BSA; composition: 10 mM HEPES; 4.2 mM NaHCO3; 11.7 mM D-glucose; 1.18 mM MgSO4.7H2O; 1.18 mM KH2PO4; 4.69 mM KCl; 118 mM NaCl; 1.3 mM CaCl2.2H2O; 0.1% (w/v) BSA; pH 7.4). Monolayers were then washed and equilibrated for 5 min at 37° C. in 100 il KHB-BSA for subsequent recording of fluorescence as an index of intracellular [Ca^2+] ([Ca^2+]i) using a microplate reader (NOVOstar; BMG LABTECH, Aylesbury, U.K.). Briefly, 20 μl of KHB-BSA, with or without ligand, was added into the well (200 μl/s) and fluorescence determined at 0.5 s intervals by excitation at 485 nm and collection of emitted light at 520 nm. Changes in fluorescence above basal levels (before ligand addition) were determined. […] Fmax was obtained by removal of buffer and addition of KHB-BSA buffer containing 4 mM [Ca^2+] and ionomycin (2 μM) to representative wells and the fluorescence measured for 10 min. Fmin was then derived by replacing buffer with Ca^2+-free KHB-BSA buffer containing 2 mM EGTA and fluorescence measured for 10 min. For the determination of concentration-response relationships, the maximal change in [Ca^2+]i was calculated following ligand addition. Concentration-response curves were then fitted using a four-parameter logistic equation to determine EC50 values (GraphPad Software Inc., Calif.).
Background: A change in cytosolic calcium serves as a functional read-out for many receptors and channels.

Series [2] has as its system diet induced obese (DIO) mouse model. The series can be described thus: Single dose in vivo anorectic experiments in DIO mouse model. The following applies: DIO mice; for anorectic activity, single dose: single dose 5344 nMole/kg, FIG. 3A. The source says:
FIG. 3. Single dose in vivo experiments performed in DIO mouse model. (A) Comparison of anorectic effects of NM4 and NM7. (B) NM4 dose response experiments. (C) Comparison of NM4 and NM4A anorectic activity.
Initially we focused on single dose experiments comparing NM4 and NM7 at 5344 nMole/kg dose (FIG. 3).

The conditions of series [3]: cited from earlier work.

Where a SMILES comes first, the peptide text is derived from it. [ ]: non-standard residue; d: D form. The star is where a group is joined. PEG12 = NCCOCCOCCOCCOCCOCCOCCOCCOCCOCCOCCOCCOCCC(=O)O; Oic = O=C(O)[C@@H]1C[C@@H]2CCCC[C@@H]2N1; Palmitoyl = CCCCCCCCCCCCCCCC(=O)*; Aib = CC(C)(N)C(=O)O; Ahx = NCCCCCC(=O)O

The term EC50 denotes the concentration at which the effect is half-maximal.

T1 sequence (Q9GZQ4 whole entry): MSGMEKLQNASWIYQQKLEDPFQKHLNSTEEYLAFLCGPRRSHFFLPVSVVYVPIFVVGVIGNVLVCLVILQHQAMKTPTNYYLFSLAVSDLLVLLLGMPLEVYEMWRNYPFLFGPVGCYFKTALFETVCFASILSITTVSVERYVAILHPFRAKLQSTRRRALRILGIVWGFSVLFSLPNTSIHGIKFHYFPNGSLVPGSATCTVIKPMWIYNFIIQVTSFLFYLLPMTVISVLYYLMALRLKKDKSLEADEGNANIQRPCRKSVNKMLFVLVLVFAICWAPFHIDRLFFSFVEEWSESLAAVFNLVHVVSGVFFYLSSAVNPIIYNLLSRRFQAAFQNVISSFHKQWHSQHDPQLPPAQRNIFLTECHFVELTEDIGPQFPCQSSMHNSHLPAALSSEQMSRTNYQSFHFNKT

Regarding `CC(C)C[C@H](NC(=O)[C@H](Cc1ccccc1)NC(=O)CCCCCNC(=O)[C@@H](N)CS)C(=O)N[C@@H](Cc1ccccc1)C(=O)N[C@@H](CCCNC(=N)N)C(=O)N1[C@H](C(=O)N[C@@H](CCCNC(=N)N)C(=O)N[C@@H](CC(N)=O)C(=O)NCCCCCC(=O)N[C@@H](CS)C(N)=O)C[C@@H]2CCCC[C@@H]21` [NM9, C-Ahx-FL-Phe-Arg-Oic-R-Asn-Ahx-C] (H-C[Ahx]FLFR[Oic]RN[Ahx]C-NH2), in series [1], the EC50 was found to be 0.708 ± 0.171 µM.

Turning to `CC(=O)N[C@@H](Cc1ccccc1)C(=O)N[C@@H](CC(C)C)C(=O)N[C@@H](Cc1ccccc1)C(=O)N[C@@H](CCCNC(=N)N)C(=O)N1CCC[C@H]1C(=O)N[C@@H](CCCNC(=N)N)C(=O)N[C@@H](CC(N)=O)C(N)=O` [Peptide M1, Ac-FL-Phe-Arg-Pro-R-Asn] (Ac-FLFRPRN-NH2), the EC50 in series [1] was determined as 0.0006 ± 0.00019 µM.

For `CC(C)C[C@H](NC(=O)[C@H](Cc1ccccc1)NC(=O)C(C)(C)N)C(=O)N[C@@H](Cc1ccccc1)C(=O)N[C@@H](CCCNC(=N)N)C(=O)N1CCC[C@H]1C(=O)N[C@@H](CCCNC(=N)N)C(=O)N[C@@H](CC(N)=O)C(N)=O` [Peptide M2, Aib-FL-Phe-Arg-Pro-R-Asn] (H-[Aib]FLFRPRN-NH2), the EC50 in series [1] was 0.00021 ± 7e-05 µM.

For the compound `CCCCCCCCCCCCCCCC(=O)NC(C)(C)C(=O)N[C@@H](Cc1ccccc1)C(=O)N[C@@H](CC(C)C)C(=O)N[C@@H](Cc1ccccc1)C(=O)N[C@@H](CCCNC(=N)N)C(=O)N1CCC[C@H]1C(=O)N[C@@H](CCCNC(=N)N)C(=O)N[C@@H](CC(N)=O)C(N)=O` [Peptide M3, Pal-Aib-FL-Phe-Arg-Pro-R-Asn] (Palmitoyl-[Aib]FLFRPRN-NH2), in series [1], the EC50 was 0.17 ± 0.0349 µM.

For the compound `CCCCCCCCCCCCCCCC(=O)NCCOCCOCCOCCOCCOCCOCCOCCOCCOCCOCCOCCOCCC(=O)NC(C)(C)C(=O)N[C@@H](Cc1ccccc1)C(=O)N[C@@H](CC(C)C)C(=O)N[C@@H](Cc1ccccc1)C(=O)N[C@@H](CCCNC(=N)N)C(=O)N1CCC[C@H]1C(=O)N[C@@H](CCCNC(=N)N)C(=O)N[C@@H](CC(N)=O)C(N)=O` [Peptide M4, Pal-dPEG12-Aib-FL-Phe-Arg-Pro-R-Asn] ({Palmitoyl-PEG12}-[Aib]FLFRPRN-NH2), the EC50 in series [1] amounted to 0.0017 ± 0.00029 µM. The “anorectic activity, single dose” value in series [2] is recorded as “significant anorectic activity”. In addition, the “dose dependence of anorectic effects” value in series [2] (single dose, FIG. 3B) is “dose-dependent”.

In the case of `CC(C)C[C@H](NC(=O)[C@H](Cc1ccccc1)NC(=O)C(C)(C)N)C(=O)N[C@@H](Cc1ccccc1)C(=O)N[C@@H](CCCNC(=N)N)C(=O)N1CCC[C@H]1C(=O)N[C@@H](CCCNC(=N)N)C(=O)N[C@@H](CC(N)=O)C(=O)NC(C)(C)C(N)=O` [Peptide M5, Aib-FL-Phe-Arg-Pro-R-Asn-Aib] (H-[Aib]FLFRPRN[Aib]-NH2), in series [1], the EC50 amounted to 0.0501 ± 0.0162 µM.

Turning to `CCCCCCCCCCCCCCCC(=O)NCCOCCOCCOCCOCCOCCOCCOCCOCCOCCOCCOCCOCCC(=O)NC(C)(C)C(=O)N[C@@H](Cc1ccccc1)C(=O)N[C@@H](CC(C)C)C(=O)N[C@@H](Cc1ccccc1)C(=O)N[C@@H](CCCNC(=N)N)C(=O)N1CCC[C@H]1C(=O)N[C@@H](CCCNC(=N)N)C(=O)N[C@@H](CC(N)=O)C(=O)NC(C)(C)C(N)=O` [Peptide M7, Pal-dPEG12-Aib-FL-Phe-Arg-Pro-R-Asn-Aib] ({Palmitoyl-PEG12}-[Aib]FLFRPRN[Aib]-NH2; N-terminus and C-terminus assumed), the “anorectic activity, single dose” value in series [2] is “very limited activity in vivo”.

`CC(C)C[C@H](NC(=O)[C@H](Cc1ccccc1)NC(=O)CCCCCNC(=O)[C@@H](N)CS)C(=O)N[C@@H](Cc1ccccc1)C(=O)N[C@@H](CCCNC(=N)N)C(=O)N1CCC[C@H]1C(=O)N[C@@H](CCCNC(=N)N)C(=O)N[C@@H](CC(N)=O)C(=O)NCCCCCC(=O)N[C@@H](CS)C(N)=O` [Peptide M8, C-Ahx-FL-Phe-Arg-Pro-R-Asn-Ahx-C] (H-C[Ahx]FLFRPRN[Ahx]C-NH2): the EC50 in series [1] was 0.24 ± 0.0357 µM.

In the case of `CC(C)C[C@H](NC(=O)[C@H](Cc1ccccc1)NC(=O)[C@H](Cc1ccc(O)cc1)NC(=O)CNC(=O)[C@H](CCCNC(=N)N)NC(=O)[C@H](CO)NC(=O)[C@H](CCC(N)=O)NC(=O)[C@H](CO)NC(=O)[C@H](C)NC(=O)[C@H](Cc1ccccc1)NC(=O)[C@@H]1CCCN1C(=O)[C@H](CO)NC(=O)[C@H](CCC(N)=O)NC(=O)[C@H](Cc1ccccc1)NC(=O)[C@H](CCC(=O)O)NC(=O)[C@H](CCC(=O)O)NC(=O)[C@H](CC(=O)O)NC(=O)[C@@H](NC(=O)[C@H](CCCNC(=N)N)NC(=O)[C@@H](N)Cc1ccccc1)C(C)C)C(=O)N[C@@H](Cc1ccccc1)C(=O)N[C@@H](CCCNC(=N)N)C(=O)N1CCC[C@H]1C(=O)N[C@@H](CCCNC(=N)N)C(=O)N[C@@H](CC(N)=O)C(N)=O` [hNMU, FRVDEEFQSPFASQSRGY-FL-Phe-Arg-Pro-R-Asn, reference compound] (H-FRVDEEFQSPFASQSRGYFLFRPRN-NH2), the EC50 in series [1] is 0.00049 ± 0.00013 µM.

“Neuromedin U (FRVDEEFQSPFASQSRGYFLFRPRN) [NMU]”: the “half-life after subcutaneous (sc) injection” value in series [3] (subcutaneous injection) is given as “less than 5 min”.

As for semaglutide, the plasma half-life in series [3] (in vivo) was 160 h.
